# Measurements reported in BigSolDB 2.1.
structure (smiles),measurement,setting,value
CC#C[C@]1(O)CC[C@H]2[C@@H]3CCC4=CC(=O)CCC4=C3[C@@H](c3ccc(N(C)C)cc3)C[C@@]21C,solubility (mole fraction),"in THF, 273.15 K",5.16e-05
same,solubility (mole fraction),"in THF, 278.15 K",6e-05
same,solubility (mole fraction),"in THF, 283.15 K",6.95e-05
same,solubility (mole fraction),"in THF, 288.15 K",8.05e-05
same,solubility (mole fraction),"in THF, 293.15 K",9.3e-05
same,solubility (mole fraction),"in THF, 298.15 K",0.000107
same,solubility (mole fraction),"in THF, 303.15 K",0.000123
same,solubility (mole fraction),"in THF, 308.15 K",0.000142
same,solubility (mole fraction),"in THF, 313.15 K",0.000163
same,solubility (mole fraction),"in THF, 318.15 K",0.000188
same,solubility (mole fraction),"in acetone, 273.15 K",0.000149
same,solubility (mole fraction),"in acetone, 278.15 K",0.000184
same,solubility (mole fraction),"in acetone, 283.15 K",0.000228
same,solubility (mole fraction),"in acetone, 288.15 K",0.000281
same,solubility (mole fraction),"in acetone, 293.15 K",0.000345
same,solubility (mole fraction),"in acetone, 298.15 K",0.000422
same,solubility (mole fraction),"in acetone, 303.15 K",0.000516
same,solubility (mole fraction),"in acetone, 308.15 K",0.000628
same,solubility (mole fraction),"in acetone, 313.15 K",0.000762
same,solubility (mole fraction),"in acetone, 318.15 K",0.000922
same,solubility (mole fraction),"in ethanol, 273.15 K",0.000122
same,solubility (mole fraction),"in ethanol, 278.15 K",0.000146
same,solubility (mole fraction),"in ethanol, 283.15 K",0.000174
same,solubility (mole fraction),"in ethanol, 288.15 K",0.000206
same,solubility (mole fraction),"in ethanol, 293.15 K",0.000244
same,solubility (mole fraction),"in ethanol, 298.15 K",0.000289
same,solubility (mole fraction),"in ethanol, 303.15 K",0.000341
same,solubility (mole fraction),"in ethanol, 308.15 K",0.000401
same,solubility (mole fraction),"in ethanol, 313.15 K",0.000472
same,solubility (mole fraction),"in ethanol, 318.15 K",0.000552
same,solubility (mole fraction),"in ethyl acetate, 273.15 K",0.000103
same,solubility (mole fraction),"in ethyl acetate, 278.15 K",0.000125
same,solubility (mole fraction),"in ethyl acetate, 283.15 K",0.000152
same,solubility (mole fraction),"in ethyl acetate, 288.15 K",0.000184
same,solubility (mole fraction),"in ethyl acetate, 293.15 K",0.000223
same,solubility (mole fraction),"in ethyl acetate, 298.15 K",0.00027
same,solubility (mole fraction),"in ethyl acetate, 303.15 K",0.000325
same,solubility (mole fraction),"in ethyl acetate, 308.15 K",0.000392
same,solubility (mole fraction),"in ethyl acetate, 313.15 K",0.000471
same,solubility (mole fraction),"in ethyl acetate, 318.15 K",0.000565
same,solubility (mole fraction),"in isopropanol, 273.15 K",7.13e-05
same,solubility (mole fraction),"in isopropanol, 278.15 K",0.000109
same,solubility (mole fraction),"in isopropanol, 283.15 K",0.000164
same,solubility (mole fraction),"in isopropanol, 288.15 K",0.000244
same,solubility (mole fraction),"in isopropanol, 293.15 K",0.000358
same,solubility (mole fraction),"in isopropanol, 298.15 K",0.000518
same,solubility (mole fraction),"in isopropanol, 303.15 K",0.00074
same,solubility (mole fraction),"in isopropanol, 308.15 K",0.00105
same,solubility (mole fraction),"in isopropanol, 313.15 K",0.00146
same,solubility (mole fraction),"in isopropanol, 318.15 K",0.00202
same,solubility (mole fraction),"in methanol, 273.15 K",0.000445
same,solubility (mole fraction),"in methanol, 278.15 K",0.00058
same,solubility (mole fraction),"in methanol, 283.15 K",0.000756
same,solubility (mole fraction),"in methanol, 288.15 K",0.000982
same,solubility (mole fraction),"in methanol, 293.15 K",0.00128
same,solubility (mole fraction),"in methanol, 298.15 K",0.00164
same,solubility (mole fraction),"in methanol, 303.15 K",0.0021
same,solubility (mole fraction),"in methanol, 308.15 K",0.00266
same,solubility (mole fraction),"in methanol, 313.15 K",0.00333
same,solubility (mole fraction),"in methanol, 318.15 K",0.00414
same,solubility (mole fraction),"in n-butanol, 273.15 K",0.000172
same,solubility (mole fraction),"in n-butanol, 278.15 K",0.000213
same,solubility (mole fraction),"in n-butanol, 283.15 K",0.000264
same,solubility (mole fraction),"in n-butanol, 288.15 K",0.000332
same,solubility (mole fraction),"in n-butanol, 293.15 K",0.000412
same,solubility (mole fraction),"in n-butanol, 298.15 K",0.000502
same,solubility (mole fraction),"in n-butanol, 303.15 K",0.000612
same,solubility (mole fraction),"in n-butanol, 308.15 K",0.000733
same,solubility (mole fraction),"in n-butanol, 313.15 K",0.000875
same,solubility (mole fraction),"in n-butanol, 318.15 K",0.00103
same,solubility (mole fraction),"in n-propanol, 273.15 K",0.000138
same,solubility (mole fraction),"in n-propanol, 278.15 K",0.000163
same,solubility (mole fraction),"in n-propanol, 283.15 K",0.000192
same,solubility (mole fraction),"in n-propanol, 288.15 K",0.000226
same,solubility (mole fraction),"in n-propanol, 293.15 K",0.000266
same,solubility (mole fraction),"in n-propanol, 298.15 K",0.00031
same,solubility (mole fraction),"in n-propanol, 303.15 K",0.000362
same,solubility (mole fraction),"in n-propanol, 308.15 K",0.000428
same,solubility (mole fraction),"in n-propanol, 313.15 K",0.000499
same,solubility (mole fraction),"in n-propanol, 318.15 K",0.000582
